Assay results as given in the NIST ThermoML archive (doi:10.1021/je0601457).

Experiment: xn = mol fraction of the nth substance listed

c1cnccn1 [pyrazine] + O=C=O
Fluid (supercritical or subcritical phases), Linear displacement technique
Settings | mass density [kg/m3]
294.25 K, 5340 kPa, x1 = 0.308 | 1054
294.25 K, 9480 kPa, x1 = 0.308 | 1070
294.25 K, 12170 kPa, x1 = 0.308 | 1078
295.55 K, 6450 kPa, x1 = 0.019 | 854
295.55 K, 7000 kPa, x1 = 0.019 | 877
295.55 K, 9070 kPa, x1 = 0.019 | 915
295.65 K, 5520 kPa, x1 = 0.146 | 887
295.65 K, 5970 kPa, x1 = 0.074 | 926
295.65 K, 6100 kPa, x1 = 0.074 | 929
295.65 K, 6310 kPa, x1 = 0.074 | 941
295.65 K, 6380 kPa, x1 = 0.116 | 815
295.65 K, 6520 kPa, x1 = 0.146 | 898
295.65 K, 8210 kPa, x1 = 0.116 | 833
295.65 K, 12790 kPa, x1 = 0.146 | 926
296.25 K, 6140 kPa, x1 = 0.09 | 873
296.25 K, 9830 kPa, x1 = 0.09 | 923
298.25 K, 6590 kPa, x1 = 0.015 | 863
298.25 K, 7520 kPa, x1 = 0.015 | 892
298.25 K, 8790 kPa, x1 = 0.015 | 918
299.45 K, 7760 kPa, x1 = 0.224 | 921
300.75 K, 6520 kPa, x1 = 0.177 | 894
300.75 K, 7070 kPa, x1 = 0.177 | 898
300.75 K, 10790 kPa, x1 = 0.177 | 917
303.65 K, 7070 kPa, x1 = 0.074 | 903
303.65 K, 8720 kPa, x1 = 0.074 | 924
303.75 K, 7480 kPa, x1 = 0.015 | 828
303.75 K, 9410 kPa, x1 = 0.015 | 898
303.75 K, 10240 kPa, x1 = 0.015 | 917
303.75 K, 12450 kPa, x1 = 0.015 | 956
304.15 K, 7690 kPa, x1 = 0.019 | 791
304.15 K, 8380 kPa, x1 = 0.019 | 826
304.15 K, 9210 kPa, x1 = 0.019 | 849
304.15 K, 10520 kPa, x1 = 0.019 | 876
304.15 K, 11900 kPa, x1 = 0.019 | 898
304.25 K, 7340 kPa, x1 = 0.116 | 798
304.25 K, 7550 kPa, x1 = 0.116 | 801
304.25 K, 9550 kPa, x1 = 0.116 | 816
304.95 K, 7280 kPa, x1 = 0.308 | 1036
304.95 K, 9690 kPa, x1 = 0.308 | 1041
304.95 K, 13620 kPa, x1 = 0.308 | 1052
305.75 K, 6930 kPa, x1 = 0.146 | 839
305.75 K, 7280 kPa, x1 = 0.146 | 863
305.75 K, 11690 kPa, x1 = 0.146 | 886
305.85 K, 7340 kPa, x1 = 0.09 | 858
305.85 K, 10170 kPa, x1 = 0.09 | 884
306.35 K, 6520 kPa, x1 = 0.397 | 1049
306.35 K, 9690 kPa, x1 = 0.397 | 1061
306.35 K, 13690 kPa, x1 = 0.397 | 1070
308.25 K, 7550 kPa, x1 = 0.074 | 882
308.25 K, 9480 kPa, x1 = 0.074 | 906
308.65 K, 6030 kPa, x1 = 0.495 | 999
308.65 K, 7000 kPa, x1 = 0.495 | 1001
308.65 K, 9240 kPa, x1 = 0.495 | 1008
309.45 K, 7070 kPa, x1 = 0.177 | 872
309.45 K, 7620 kPa, x1 = 0.177 | 874
309.45 K, 9760 kPa, x1 = 0.177 | 884
312.05 K, 9480 kPa, x1 = 0.224 | 899
312.05 K, 9760 kPa, x1 = 0.015 | 778
312.05 K, 9930 kPa, x1 = 0.015 | 787
312.05 K, 10410 kPa, x1 = 0.015 | 812
312.05 K, 11100 kPa, x1 = 0.015 | 835
312.05 K, 16790 kPa, x1 = 0.224 | 919
312.75 K, 7760 kPa, x1 = 0.308 | 1023
312.75 K, 11690 kPa, x1 = 0.308 | 1033
312.75 K, 14830 kPa, x1 = 0.308 | 1043
313.55 K, 8450 kPa, x1 = 0.116 | 773
313.55 K, 8790 kPa, x1 = 0.116 | 778
313.55 K, 10860 kPa, x1 = 0.116 | 791
313.65 K, 9030 kPa, x1 = 0.019 | 687
313.65 K, 9140 kPa, x1 = 0.019 | 712
313.65 K, 9830 kPa, x1 = 0.019 | 761
313.65 K, 10450 kPa, x1 = 0.019 | 792
313.65 K, 10860 kPa, x1 = 0.019 | 809
313.65 K, 12520 kPa, x1 = 0.019 | 850
314.85 K, 8240 kPa, x1 = 0.146 | 833
314.85 K, 8860 kPa, x1 = 0.146 | 839
314.85 K, 14240 kPa, x1 = 0.146 | 869
314.95 K, 7830 kPa, x1 = 0.397 | 1040
314.95 K, 11280 kPa, x1 = 0.397 | 1048
314.95 K, 15140 kPa, x1 = 0.397 | 1060
315.85 K, 8660 kPa, x1 = 0.09 | 813
318.95 K, 9210 kPa, x1 = 0.015 | 512
318.95 K, 9280 kPa, x1 = 0.015 | 527
318.95 K, 9480 kPa, x1 = 0.015 | 571
320.15 K, 9140 kPa, x1 = 0.09 | 806
320.15 K, 10790 kPa, x1 = 0.09 | 830
320.95 K, 9660 kPa, x1 = 0.224 | 877
320.95 K, 13000 kPa, x1 = 0.224 | 889
321.55 K, 9280 kPa, x1 = 0.177 | 839
321.55 K, 10520 kPa, x1 = 0.177 | 847
321.55 K, 12520 kPa, x1 = 0.177 | 857

linear displacement
Settings | mass density [kg/m3]
294.25 K, Liquid, x1 = 0.308 | 1048
295.55 K, Liquid, x1 = 0.019 | 842
295.65 K, Liquid, x1 = 0.074 | 922
295.65 K, Liquid, x1 = 0.116 | 809
295.65 K, Liquid, x1 = 0.146 | 887
296.25 K, Liquid, x1 = 0.09 | 864
298.25 K, Liquid, x1 = 0.015 | 857
299.45 K, Liquid, x1 = 0.224 | 910
300.75 K, Liquid, x1 = 0.177 | 889
303.65 K, Liquid, x1 = 0.074 | 900
303.75 K, Liquid, x1 = 0.015 | 802
304.15 K, Liquid, x1 = 0.019 | 776
304.25 K, Liquid, x1 = 0.116 | 795
304.95 K, Liquid, x1 = 0.308 | 1028
305.75 K, Liquid, x1 = 0.146 | 860
305.85 K, Liquid, x1 = 0.09 | 854
306.35 K, Liquid, x1 = 0.397 | 1042
308.25 K, Liquid, x1 = 0.074 | 878
308.65 K, Liquid, x1 = 0.495 | 992
309.45 K, Liquid, x1 = 0.177 | 870
312.05 K, Liquid, x1 = 0.015 | 656
312.05 K, Liquid, x1 = 0.224 | 887
312.75 K, Liquid, x1 = 0.308 | 1019
313.55 K, Liquid, x1 = 0.116 | 771
313.65 K, Liquid, x1 = 0.019 | 679
314.85 K, Liquid, x1 = 0.146 | 830
314.95 K, Liquid, x1 = 0.397 | 1037
315.85 K, Liquid, x1 = 0.09 | 810
318.95 K, Gas, x1 = 0.015 | 452
320.15 K, Liquid, x1 = 0.09 | 799
320.95 K, Liquid, x1 = 0.224 | 870
